Measured values as given in patent publication US8933230B2, “Phosphorus-containing group-substituted quinoline, its preparation process, medical composition containing the compounds and application” (priority 2011, dated 2015).

Assays:
Experiment in all cases: KinomeScan kinase panel
Assay type in all cases: binding
AAK1 = biological target: T1, AAK1 (Homo sapiens, UniProt Q2M2I8)
T1 construct: purchased DiscoveRx Corporation (KinomeScan)
In short: (§1)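 Broad-panel profiling: KinomeScan, 442 wild-type and mutant kinases, each exposed to compound at 1000 nM.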

ADCK4 = biological target: T2, ADCK4 (Homo sapiens, UniProt Q96D53)
T2 construct: purchased DiscoveRx Corporation (KinomeScan)
In short: as §1

AMPK-alpha1 = biological target: T3, AMPK-alpha1 (Homo sapiens, UniProt Q13131)
T3 construct: purchased DiscoveRx Corporation (KinomeScan)
In short: as §1

ASK2 = biological target: T4, ASK2 (Homo sapiens, UniProt O95382)
T4 construct: purchased DiscoveRx Corporation (KinomeScan)
In short: as §1

BTK = biological target: T5, BTK (Homo sapiens, UniProt Q06187)
T5 construct: purchased DiscoveRx Corporation (KinomeScan)
In short: as §1

CAMK4 = biological target: T6, CAMK4 (Homo sapiens, UniProt Q16566)
T6 construct: purchased DiscoveRx Corporation (KinomeScan)
In short: as §1

CSNK1A1L = biological target: T7, CSNK1A1L (Homo sapiens, UniProt Q8N752)
T7 construct: purchased DiscoveRx Corporation (KinomeScan)
In short: as §1

CSNK1D = biological target: T8, CSNK1D (Homo sapiens, UniProt P48730)
T8 construct: purchased DiscoveRx Corporation (KinomeScan)
In short: as §1

DCAMKL1 = biological target: T9, DCAMKL1 (Homo sapiens, UniProt O15075)
T9 construct: purchased DiscoveRx Corporation (KinomeScan)
In short: as §1

ERN1 = biological target: T10, ERN1 (Homo sapiens, UniProt O75460)
T10 construct: purchased DiscoveRx Corporation (KinomeScan)
In short: as §1

FLT3 = biological target: T11, FLT3 (Homo sapiens, UniProt P36888)
T11 construct: purchased DiscoveRx Corporation (KinomeScan)
In short: as §1

FLT3(D835Y) = biological target: T12, FLT3(D835Y) (Homo sapiens, UniProt P36888, D835Y)
T12 construct: purchased DiscoveRx Corporation (KinomeScan)
In short: as §1

FRK = biological target: T13, FRK (Homo sapiens, UniProt P42685)
T13 construct: purchased DiscoveRx Corporation (KinomeScan)
In short: as §1

GSK3B = biological target: T14, GSK3B (Homo sapiens, UniProt P49841)
T14 construct: purchased DiscoveRx Corporation (KinomeScan)
In short: as §1

[1] = biological target: T15, JAK1(JH2domain-pseudokinase) (Homo sapiens, UniProt P23458)
T15 construct: JAK1(JH2domain-; purchased DiscoveRx Corporation (KinomeScan)
In short: as §1

LRRK2(G2019S) = biological target: T16, LRRK2(G2019S) (Homo sapiens, UniProt Q5S007, G2019S)
T16 construct: purchased DiscoveRx Corporation (KinomeScan)
In short: as §1

LTK = biological target: T17, LTK (Homo sapiens, UniProt P29376)
T17 construct: purchased DiscoveRx Corporation (KinomeScan)
In short: as §1

MEK5 = biological target: T18, MEK5 (Homo sapiens, UniProt Q13163)
T18 construct: purchased DiscoveRx Corporation (KinomeScan)
In short: as §1

MLCK = biological target: T19, MLCK (Homo sapiens, UniProt Q32MK0)
T19 construct: purchased DiscoveRx Corporation (KinomeScan)
T19 sequence (Q32MK0 whole entry): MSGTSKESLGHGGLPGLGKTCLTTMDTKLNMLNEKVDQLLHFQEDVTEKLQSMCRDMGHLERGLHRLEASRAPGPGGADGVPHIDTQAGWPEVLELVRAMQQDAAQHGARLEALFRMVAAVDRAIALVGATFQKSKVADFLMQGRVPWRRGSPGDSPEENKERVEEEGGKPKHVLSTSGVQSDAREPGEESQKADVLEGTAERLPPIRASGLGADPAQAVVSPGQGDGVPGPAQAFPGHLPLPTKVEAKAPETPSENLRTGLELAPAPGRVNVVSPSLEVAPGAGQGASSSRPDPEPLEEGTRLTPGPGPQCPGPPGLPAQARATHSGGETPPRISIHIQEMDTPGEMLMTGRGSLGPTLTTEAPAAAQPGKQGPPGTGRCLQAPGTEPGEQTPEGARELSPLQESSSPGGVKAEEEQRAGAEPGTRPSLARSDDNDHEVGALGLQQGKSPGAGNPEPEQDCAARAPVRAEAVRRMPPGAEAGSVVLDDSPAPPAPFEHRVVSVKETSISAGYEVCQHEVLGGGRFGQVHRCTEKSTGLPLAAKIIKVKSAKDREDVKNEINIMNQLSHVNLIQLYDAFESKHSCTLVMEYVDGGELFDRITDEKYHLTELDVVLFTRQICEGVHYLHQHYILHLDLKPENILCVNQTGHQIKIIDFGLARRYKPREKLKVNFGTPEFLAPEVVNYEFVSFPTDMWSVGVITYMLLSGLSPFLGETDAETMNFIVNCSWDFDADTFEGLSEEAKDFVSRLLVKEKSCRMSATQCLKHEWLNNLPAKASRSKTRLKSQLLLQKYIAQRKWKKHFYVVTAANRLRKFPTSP
In short: as §1

MST1R = biological target: T20, MST1R (Homo sapiens, UniProt Q04912)
T20 construct: purchased DiscoveRx Corporation (KinomeScan)
In short: as §1

MYO3A = biological target: T21, MYO3A (Homo sapiens, UniProt Q8NEV4)
T21 construct: purchased DiscoveRx Corporation (KinomeScan)
T21 sequence (Q8NEV4 whole entry): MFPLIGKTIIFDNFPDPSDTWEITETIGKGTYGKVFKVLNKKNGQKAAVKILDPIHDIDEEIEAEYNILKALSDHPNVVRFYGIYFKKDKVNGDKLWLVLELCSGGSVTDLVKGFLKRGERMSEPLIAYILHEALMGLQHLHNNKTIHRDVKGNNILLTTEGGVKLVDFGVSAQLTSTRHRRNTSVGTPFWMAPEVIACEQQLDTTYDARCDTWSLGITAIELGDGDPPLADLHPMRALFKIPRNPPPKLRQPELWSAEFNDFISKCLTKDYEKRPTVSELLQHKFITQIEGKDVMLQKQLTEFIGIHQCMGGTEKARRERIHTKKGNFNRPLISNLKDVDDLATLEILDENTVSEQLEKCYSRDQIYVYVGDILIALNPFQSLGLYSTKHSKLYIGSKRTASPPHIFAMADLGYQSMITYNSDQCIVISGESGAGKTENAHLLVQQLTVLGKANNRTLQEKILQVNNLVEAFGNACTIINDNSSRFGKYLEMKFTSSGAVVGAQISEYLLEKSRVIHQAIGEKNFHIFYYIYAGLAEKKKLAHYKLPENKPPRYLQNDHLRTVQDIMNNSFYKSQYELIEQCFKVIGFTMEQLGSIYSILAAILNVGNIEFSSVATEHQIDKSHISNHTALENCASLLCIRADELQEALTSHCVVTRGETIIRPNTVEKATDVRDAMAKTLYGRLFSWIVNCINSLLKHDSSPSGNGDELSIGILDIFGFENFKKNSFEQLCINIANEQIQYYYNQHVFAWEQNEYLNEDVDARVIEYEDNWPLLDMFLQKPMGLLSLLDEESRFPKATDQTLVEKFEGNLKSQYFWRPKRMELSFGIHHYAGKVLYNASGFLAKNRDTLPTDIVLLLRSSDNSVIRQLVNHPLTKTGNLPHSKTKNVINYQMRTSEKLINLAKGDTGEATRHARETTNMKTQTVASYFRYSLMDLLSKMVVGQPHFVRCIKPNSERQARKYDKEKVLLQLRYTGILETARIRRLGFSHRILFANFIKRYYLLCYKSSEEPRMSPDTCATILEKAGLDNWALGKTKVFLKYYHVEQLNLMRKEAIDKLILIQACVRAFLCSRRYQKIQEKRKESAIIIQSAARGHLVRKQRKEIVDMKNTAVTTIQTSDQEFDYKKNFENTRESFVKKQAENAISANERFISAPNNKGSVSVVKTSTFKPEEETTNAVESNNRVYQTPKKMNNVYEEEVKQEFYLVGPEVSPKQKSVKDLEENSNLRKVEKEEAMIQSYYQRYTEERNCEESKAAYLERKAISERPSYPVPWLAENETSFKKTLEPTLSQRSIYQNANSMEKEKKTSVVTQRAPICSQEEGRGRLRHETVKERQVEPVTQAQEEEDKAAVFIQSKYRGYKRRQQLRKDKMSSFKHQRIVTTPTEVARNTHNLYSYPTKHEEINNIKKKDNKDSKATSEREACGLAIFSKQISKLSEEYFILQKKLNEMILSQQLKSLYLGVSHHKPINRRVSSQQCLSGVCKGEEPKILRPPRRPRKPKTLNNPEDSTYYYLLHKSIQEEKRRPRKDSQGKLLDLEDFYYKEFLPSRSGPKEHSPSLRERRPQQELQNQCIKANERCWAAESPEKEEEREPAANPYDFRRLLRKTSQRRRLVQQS
In short: as §1

NEK6 = biological target: T22, NEK6 (Homo sapiens, UniProt Q9HC98)
T22 construct: purchased DiscoveRx Corporation (KinomeScan panel)
In short: as §1

PAK1 = biological target: T23, PAK1 (Homo sapiens, UniProt Q13153)
T23 construct: purchased DiscoveRx Corporation (KinomeScan panel)
In short: as §1

PAK4 = biological target: T24, PAK4 (Homo sapiens, UniProt O96013)
T24 construct: purchased DiscoveRx Corporation (KinomeScan panel)
In short: as §1

PIK3CA(E542K) = biological target: T25, PIK3CA(E542K) (Homo sapiens, UniProt P42336, E542K)
T25 construct: purchased DiscoveRx Corporation (KinomeScan)
In short: as §1

PIK3CD = biological target: T26, PIK3CD (Homo sapiens, UniProt O00329)
T26 construct: purchased DiscoveRx Corporation (KinomeScan)
In short: as §1

PIK3CG = biological target: T27, PIK3CG (Homo sapiens, UniProt P48736)
T27 construct: purchased DiscoveRx Corporation (KinomeScan)
T27 sequence (P48736 whole entry): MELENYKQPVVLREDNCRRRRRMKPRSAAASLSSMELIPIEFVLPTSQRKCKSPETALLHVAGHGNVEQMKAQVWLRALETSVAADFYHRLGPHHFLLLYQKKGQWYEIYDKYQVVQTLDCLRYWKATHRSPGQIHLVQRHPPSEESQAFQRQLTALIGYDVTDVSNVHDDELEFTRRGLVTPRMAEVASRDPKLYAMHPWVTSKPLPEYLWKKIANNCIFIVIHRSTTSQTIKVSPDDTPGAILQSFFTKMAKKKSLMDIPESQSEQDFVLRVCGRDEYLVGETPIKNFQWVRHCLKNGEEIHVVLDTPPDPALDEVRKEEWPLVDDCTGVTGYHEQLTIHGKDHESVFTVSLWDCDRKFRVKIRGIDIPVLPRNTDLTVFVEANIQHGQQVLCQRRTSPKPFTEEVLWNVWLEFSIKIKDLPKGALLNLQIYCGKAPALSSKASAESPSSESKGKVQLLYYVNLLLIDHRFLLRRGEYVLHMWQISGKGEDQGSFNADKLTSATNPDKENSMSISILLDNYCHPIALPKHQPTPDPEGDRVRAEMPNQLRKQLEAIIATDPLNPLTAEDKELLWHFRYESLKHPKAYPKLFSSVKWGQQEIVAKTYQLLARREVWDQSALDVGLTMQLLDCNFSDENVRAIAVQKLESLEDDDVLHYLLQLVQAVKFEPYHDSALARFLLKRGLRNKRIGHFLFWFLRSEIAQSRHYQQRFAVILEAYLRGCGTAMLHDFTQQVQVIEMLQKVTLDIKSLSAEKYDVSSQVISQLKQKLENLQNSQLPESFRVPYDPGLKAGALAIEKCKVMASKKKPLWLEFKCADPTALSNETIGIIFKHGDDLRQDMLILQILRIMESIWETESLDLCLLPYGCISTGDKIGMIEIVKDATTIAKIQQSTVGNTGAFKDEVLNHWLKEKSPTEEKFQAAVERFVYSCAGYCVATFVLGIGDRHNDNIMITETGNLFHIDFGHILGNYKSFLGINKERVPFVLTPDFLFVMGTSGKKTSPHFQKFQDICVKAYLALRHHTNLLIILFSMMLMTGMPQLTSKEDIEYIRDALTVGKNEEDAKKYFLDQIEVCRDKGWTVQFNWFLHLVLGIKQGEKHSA
In short: as §1

PLK2 = biological target: T28, PLK2 (Homo sapiens, UniProt Q9NYY3)
T28 construct: purchased DiscoveRx Corporation (KinomeScan)
In short: as §1

PRKCQ = biological target: T29, PRKCQ (Homo sapiens, UniProt Q04759)
T29 construct: purchased DiscoveRx Corporation (KinomeScan)
T29 sequence (Q04759 whole entry): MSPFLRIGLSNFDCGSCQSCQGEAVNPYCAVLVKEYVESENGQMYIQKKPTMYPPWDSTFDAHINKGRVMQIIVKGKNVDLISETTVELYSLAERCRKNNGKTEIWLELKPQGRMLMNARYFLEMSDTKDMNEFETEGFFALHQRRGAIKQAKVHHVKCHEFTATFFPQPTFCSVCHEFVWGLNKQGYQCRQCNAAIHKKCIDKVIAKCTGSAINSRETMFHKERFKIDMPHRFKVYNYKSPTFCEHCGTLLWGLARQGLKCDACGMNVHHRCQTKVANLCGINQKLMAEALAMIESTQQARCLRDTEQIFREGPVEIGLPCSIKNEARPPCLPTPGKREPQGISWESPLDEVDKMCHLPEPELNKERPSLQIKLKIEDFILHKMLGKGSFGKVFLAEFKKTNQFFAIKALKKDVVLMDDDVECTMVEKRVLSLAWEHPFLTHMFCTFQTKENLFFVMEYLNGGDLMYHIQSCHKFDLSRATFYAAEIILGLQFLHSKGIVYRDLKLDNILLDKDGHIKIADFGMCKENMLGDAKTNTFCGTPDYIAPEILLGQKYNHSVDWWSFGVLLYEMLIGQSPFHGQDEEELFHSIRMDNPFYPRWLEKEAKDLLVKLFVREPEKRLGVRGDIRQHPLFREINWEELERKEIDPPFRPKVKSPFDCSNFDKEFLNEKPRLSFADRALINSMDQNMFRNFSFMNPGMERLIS
In short: as §1

ROCK2 = biological target: T30, ROCK2 (Homo sapiens, UniProt O75116)
T30 construct: purchased DiscoveRx Corporation
In short: as §1

SRPK2 = biological target: T31, SRPK2 (Homo sapiens, UniProt P78362)
T31 construct: purchased DiscoveRx Corporation (KinomeScan)
T31 sequence (P78362 whole entry): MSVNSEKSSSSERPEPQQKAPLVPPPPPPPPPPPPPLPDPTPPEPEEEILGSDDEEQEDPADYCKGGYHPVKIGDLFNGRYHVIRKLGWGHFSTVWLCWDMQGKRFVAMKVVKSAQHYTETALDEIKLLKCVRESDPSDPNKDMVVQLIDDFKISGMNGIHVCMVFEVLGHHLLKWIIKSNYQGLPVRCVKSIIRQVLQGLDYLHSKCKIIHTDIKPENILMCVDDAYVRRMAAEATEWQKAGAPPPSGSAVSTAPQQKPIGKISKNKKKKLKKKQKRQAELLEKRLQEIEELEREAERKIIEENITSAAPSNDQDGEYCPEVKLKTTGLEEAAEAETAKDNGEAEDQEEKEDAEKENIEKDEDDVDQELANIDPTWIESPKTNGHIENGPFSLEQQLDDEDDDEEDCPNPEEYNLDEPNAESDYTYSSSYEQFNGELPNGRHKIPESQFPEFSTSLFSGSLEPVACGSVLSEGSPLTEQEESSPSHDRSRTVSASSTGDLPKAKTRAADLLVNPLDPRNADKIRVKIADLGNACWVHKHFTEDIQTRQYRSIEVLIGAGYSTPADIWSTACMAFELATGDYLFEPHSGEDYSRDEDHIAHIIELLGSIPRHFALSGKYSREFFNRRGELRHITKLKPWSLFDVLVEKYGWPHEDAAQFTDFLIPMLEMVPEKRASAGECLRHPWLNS
In short: as §1

STK33 = biological target: T32, STK33 (Homo sapiens, UniProt Q9BYT3)
T32 construct: purchased DiscoveRx Corporation (KinomeScan)
In short: as §1

TAOK2 = biological target: T33, TAOK2 (Homo sapiens, UniProt Q9UL54)
T33 construct: purchased DiscoveRx Corporation (KinomeScan)
In short: as §1

TIE2 = biological target: T34, TIE2 (Homo sapiens, UniProt Q02763)
T34 construct: purchased DiscoveRx Corporation (KinomeScan)
In short: as §1

ULK3 = biological target: T35, ULK3 (Homo sapiens, UniProt Q6PHR2)
T35 construct: purchased DiscoveRx Corporation (KinomeScan service)
In short: as §1

YANK1 = biological target: T36, YANK1 (Homo sapiens, UniProt Q8WU08)
T36 construct: purchased DiscoveRx Corporation (KinomeScan service)
In short: as §1

## CCOP(=O)(CN1CCC(COc2cc3nccc(Oc4ccc(NC(=O)C5(C(=O)Nc6ccc(F)cc6)CC5)cc4F)c3cc2OC)CC1)OCC [Example 10, N1-[4-[[7-[[1-(diethoxyphosphorylmethyl)-4-piperidinyl]methoxyl]-6-methoxyl-4-quinolyl]oxyl]-3-fluorophenyl]-N1′-(4-fluorophenyl)cyclopropane-1,1-dicarboxamide]
AAK1
  % Ctrl@1000 nM: 91 % Ctrl
ADCK4
  % Ctrl@1000 nM: 100 % Ctrl
AMPK-alpha1
  % Ctrl@1000 nM: 100 % Ctrl
ASK2
  % Ctrl@1000 nM: 100 % Ctrl
BTK
  % Ctrl@1000 nM: 51 % Ctrl
CAMK4
  % Ctrl@1000 nM: 100 % Ctrl
CSNK1A1L
  % Ctrl@1000 nM: 100 % Ctrl
CSNK1D
  % Ctrl@1000 nM: 100 % Ctrl
DCAMKL1
  % Ctrl@1000 nM: 91 % Ctrl
ERN1
  % Ctrl@1000 nM: 81 % Ctrl
FLT3
  % Ctrl@1000 nM: 2.3 % Ctrl
FLT3(D835Y)
  % Ctrl@1000 nM: 2.4 % Ctrl
FRK
  % Ctrl@1000 nM: 8.8 % Ctrl
GSK3B
  % Ctrl@1000 nM: 100 % Ctrl
[1]
  % Ctrl@1000 nM: 100 % Ctrl
LRRK2(G2019S)
  % Ctrl@1000 nM: 100 % Ctrl
LTK
  % Ctrl@1000 nM: 26 % Ctrl
MEK5
  % Ctrl@1000 nM: 0.25 % Ctrl
MLCK
  % Ctrl@1000 nM: 100 % Ctrl
MST1R
  % Ctrl@1000 nM: 4 % Ctrl
MYO3A
  % Ctrl@1000 nM: 93 % Ctrl
NEK6
  % Ctrl@1000 nM: 100 % Ctrl
PAK1
  % Ctrl@1000 nM: 37 % Ctrl
PAK4
  % Ctrl@1000 nM: 100 % Ctrl
PIK3CA(E542K)
  % Ctrl@1000 nM: 100 % Ctrl
PIK3CD
  % Ctrl@1000 nM: 100 % Ctrl
PIK3CG
  % Ctrl@1000 nM: 100 % Ctrl
PLK2
  % Ctrl@1000 nM: 83 % Ctrl
PRKCQ
  % Ctrl@1000 nM: 100 % Ctrl
ROCK2
  % Ctrl@1000 nM: 100 % Ctrl
SRPK2
  % Ctrl@1000 nM: 100 % Ctrl
STK33
  % Ctrl@1000 nM: 46 % Ctrl
TAOK2
  % Ctrl@1000 nM: 70 % Ctrl
TIE2
  % Ctrl@1000 nM: 2.4 % Ctrl
ULK3
  % Ctrl@1000 nM: 82 % Ctrl
YANK1
  % Ctrl@1000 nM: 100 % Ctrl
